From US6428816B1, “Carotenoid agent for inhibiting the conversion of epithelial cells to tumors” (Cognis Australia Pty., Ltd., priority 1992, dated 2002)
“Also recorded” adds a separate entry of the source.

How the values were obtained:
c-jun = test: Northern analysis of c-jun RNA in melanocytes exposed to UV-B; type: cell-based, human; conditions: for decrease of C-jun induction versus irradiated melanocytes in complete medium (TPA and IBMX) / RNA levels in the absence of the factor: FIG. 9; for decrease of C-jun induction versus irradiated melanocytes in complete medium (TPA and IBMX): medium without the factor (TPA 10 ng/ml or IBMX 0.1 mM) 24 hours, 100 mJ/cm^2 UVB, 1 hour after irradiation; for RNA levels in the absence of the factor: melanocytes not exposed to UVB
From the text: Ultra-violet (“UV”) radiation can cause severe damage to cells, including genetic mutations, the promotion of cancer, and other adverse conditions. The potentially harmful effects for UV radiation for humans are mainly due to the UVB spectrum (ie, radiation having a wavelength of between 290 and 320 nanometers) (See: […], Soler N A Staff J S and Mihm M C Jr: “The human sunburn reaction: histologic and biochemical studies” J, Am. […] Another form of UV radiation is called “UVC”. UVC radiation in sunlight typically has a wavelength of the order of 254 nanometers. It is not as biologically relevant as UVB radiation however, because th UVC radiation in sunlight is strongly absorbed by the earth's ozone layer. accordingly, in the present study, we investigated the effects of UVB irradiation by melanocytes, and the changes to those effects by treating those cells with carotenoids. UVC wavelengths were blocked out of the experiments as the cells were incubated in plastic vessels. […] Wavelengths shorter than 280 nm wee cut off by keeping lids on tissue culture dishes. […] Total RNA was isolated by detergent lysis followed by phenol-chloroform extraction and ethanol precipitation. 15 micrograms of RNA was size-fractionated on denaturing formaldehyde/agarose gels and transferred to nylon filters by capillary blotting. […] After hybridization, filters were washed to a stringency of 0.5-0.1X SSC at 60° C. and autoradiographed at -80° C. for three to ten days using Fuji film. Autoradiographs are quantitated by densitometry using the GS-365 software (Hoefer Scientific). […] The c-fos probe was a 1.8 kb Xbo 1/Eco R I fragment from the plasmid BK 28 (Verma, 1988). The 185 probe was isolated by an EcoRI digest and isolation of the 5.6 kb fragment from the plasmid pB (Gonzalez, 1988). […] The 0.05 hour time indicates cells were harvested within 3 minutes following UV-B exposure. A “control” group received precisely the same treatment as the “treated” group, with the exception of being treated with beta-carotene.

normal human melanocytes [1] = test: DNA synthesis by tritiated thymidine incorporation in normal human melanocytes; type: cell-based; conditions: for effect on DNA synthesis (percent tritiated thymidine incorporation): no UV
Procedure: FIGS. 1 and 5 refer to “Percent Tritiated Thymidine Incorporation” which is a measure of DNA synthesis activity.
(§1) Human neonatal foreskins were placed in 0.25% trypsin at 4° C. overnight. Following this incubation, the tissue was scraped to recover the melanocytes. The melanocytes were cultured in MCDB 151 (Sigma) medium containing 2% fetal calf serum, 0.3% bovine pituitary extract (Clonetics Corp.), 10 nanograms/ml TPA, 2 mM CaCl2, 5 micrograms/ml insulin and 0.1 mM IBMX (Sigma).
(§2) Cells were harvested with 0.25% trypsin and counted on a Coulter Counter (Coulter Instruments). Viability was determined by trypan blue exclusion. DNA synthesis was measured by labelling with (methyl-^3H)-thymidine (2.5 mCi/ml, 20 Ci/mmol, DuPont-New England Nuclear) added to the medium during the last 4 hours of incubation. Melanocytes were harvested using a Ph.D. cell harvester (Cambridge Research Inc.). the amount of radioactivity incorporated was determined by liquid scintillation counting (LS5000TD. Beckman Instruments).
(§3) Normal human melanocytes were seeded into the appropriate vessel (6 well plate, 96 well plate, 75 cm or 175 cm flask) and allowed to grow to 50-60% confluency. […] The 0.05 hour time indicates cells were harvested within 3 minutes following UV-B exposure.

normal human melanocytes [2] = conditions: FIG. 2; 500 mJ/cm^2 UV-B; up to 24 hours after irradiation
Procedure: as §1, §2, §3

c-fos = test: Northern analysis of c-fos RNA in melanocytes exposed to UV-B; type: cell-based, human
Procedure: as §3

NF Kappa B = test: Gel mobility shift assay of NF Kappa B DNA binding activity in nuclear extracts of UV-B irradiated melanocytes; type: cell-based, human
Procedure: In summary, gel mobility shift assay using a NF Kappa B consensus sequence was performed to determine DNA binding activity of nuclear extracts from four normal Caucasian melanocyte (NCM) lines.
Cells were grown to approximately 50-60% confluency and treated as described in the experimental protocol described in section (i) below. The cells were allowed to swell in hypotonic buffer (10 mM HEPES, pH 7.8, 0.1 mM EDTA, 10 mM KCC, 1 mM DTT. PMSF for 15 minutes on ice). Cytosolic protein fraction was obtained after the addition of Nonider P-40 to a final concentration of 0.5% and separation from the nuclei by centrifugation (500×g. for 5 minutes). Nuclear proteins were extracted from the remaining pellet by dialysis with hypertonic buffer ([…], pH 7.9, 350 mM NaCl, 1 Mm DTT, 1 mM PMSF) for 2 hours at 10° C. Isolated nuclear protein was frozen and stored at −80° C. Quantitation was calculated from optical density readings of 230, 260 and 320 wavelengths.
Five microgram samples of each extract were incubated with 10,000 cpm of a ^32p-labelled consensus oligonucleotide of NF Kappa B. Following a 1 hour incubation, samples were electrophoresed in a low ionic strength polyacrylamide gel. Quantitation of protein; DNA complexes was accomplished by densitometry.
as §3

[3] = FIG. 6, 1 ug/ml for 24 hours, then 100 or 500 mJ/cm^2 UV-B, four melanocyte lines

| SMILES | decrease of C-jun induction versus irradiated melanocytes in complete medium (TPA and IBMX) (c-jun) | RNA levels in the absence of the factor (c-jun) | effect on DNA synthesis (percent tritiated thymidine incorporation) (normal human melanocytes [1]; FIG. 1, highest beta-carotene dose, 24 hours incubation) | effect on DNA synthesis (percent tritiated thymidine incorporation) (normal human melanocytes [1]; FIG. 1, lower beta-carotene doses, 24 hours incubation) | effect on DNA synthesis at the chosen pre-treatment dose (normal human melanocytes [1]; FIG. 1, pre-treatment dose, 1.0 microgram/ml or 10 μg/ml, 24 hours incubation) | effect of pre-treatment on DNA synthesis after UV-B (normal human melanocytes [1]; FIG. 4, 4 hours after irradiation, 400 mJ/cm^2 of UV-B) | effect of pre-treatment on DNA synthesis (tritiated thymidine incorporation) after UV-B (normal human melanocytes [1]; FIG. 4, 24 hours following 400 mJ/cm^2 of UV-B) | persistence of the viability increase over the time course (normal human melanocytes [2]) | effect on induction of c-fos by UV-B (c-fos; FIG. 3, 500 mJ/cm^2 UV-B, beta-carotene pre-treatment) | effect on UVB-induced C-fos expression (c-fos; [3]) | effect on induction of c-jun by UV-B (c-jun; FIG. 3, 24 hours following 500 mJ/cm^2 UV-B irradiation) | increase of c-jun expression by beta-carotene (c-jun; FIG. 3, four hours following 500 mJ/cm^2 UV-B irradiation) [fold] | effect on UVB-induced C-jun expression (c-jun; [3]) | effect on NF kappa B DNA binding activity (NF Kappa B; FIG. 7, 100 mJ/cm^2 UV-B) | inhibition at 1 µg/mL (NF Kappa B; Homo sapiens, Melanocyte, light or radiation study, FIG. 8, 500 mJ/cm^2 UV-B, first hour following irradiation, 1.0 ug/ml pre-treatment 24 hours) [%] | protective effect of pre-treatment (NF Kappa B complex) (NF Kappa B; one hour following UVB irradiation at 500 mJ/cm^2, p value less than 0.05, Student's t-test) |
| --- | --- | --- | --- | --- | --- | --- | --- | --- | --- | --- | --- | --- | --- | --- | --- | --- |
| CCCCCCCCCCCCCC(=O)O[C@@H]1[C@@H](C)[C@@]2(O)[C@@H](C=C(CO)C[C@]3(O)C(=O)C(C)=C[C@@H]23)[C@H]2C(C)(C)[C@]12OC(C)=O [TPA, O-Tetradecanoylphorbol 13-acetate] | approximately 50% | unaffected |  |  |  |  |  |  |  |  |  |  |  |  |  |  |
| CC1=C(/C=C/C(C)=C/C=C/C(C)=C/C=C/C=C(C)/C=C/C=C(C)/C=C/C2=C(C)CCCC2(C)C)C(C)(C)CCC1 [beta-carotene] |  |  | largely inhibited | little or no effect | minimal effect | not seen | increased | remained for the duration of the time course | essentially blocked | did not alter | completely blocked | 11.1 | only a slight effect | slightly decreased; also recorded: moderate effect | > 50 | statistically significant protective effect |
| CC(C)Cn1c(=O)n(C)c(=O)c2[nH]cnc21 [IBMX, 3-Isobutyl 1-Methyl Xanthine] | approximately 50% | unaffected |  |  |  |  |  |  |  |  |  |  |  |  |  |  |
